The values below are quoted from earlier work in patent US9446050B2, “Method for treatment of mesothelioma” (THE BRIGHAM AND WOMEN'S HOSPITAL, INC., priority 2011, dated 2016).

Data set [1] deals with mesothelioma. Particulars: large-dose single treatment in combination with leucovin.
The test system of data set [2] is mesothelioma. Particulars: single agent.

Each structure is given as a SMILES string.

On to `CN(Cc1cnc2nc(N)nc(N)c2n1)c1ccc(C(=O)N[C@@H](CCC(=O)O)C(=O)O)cc1` [methotrexate], for which the efficacy rate with mesothelioma [1] is reported as 37%.
Regarding `Nc1nc2[nH]cc(CCc3ccc(C(=O)N[C@@H](CCC(=O)O)C(=O)O)cc3)c2c(=O)[nH]1` [pemetrexed], in the data set with mesothelioma [2], the median overall survival was 10.7 months and the response rate is given as 14.1%.
